In US10407388B2, “Thiourea derivatives as activators of RORα and pharmaceutical composition containing same” (SEOUL NATIONAL UNIVERSITY R & DB FOUNDATION, priority 2011, dated 2019):

Columns and labels:
Assay type in all cases: cell-based, human
LXRα [1] = test: Expression of LXRα protein in HepG2 cells, western blotting; conditions: for expression of LXRα protein: 100 μM, 24 hours, FIG. 6a
Method: (§1) HepG2 cells (1×10^6 cells/well) were seeded on a 60-dish and cultured overnight in a DMEM containing 10% FBS. The HepG2 cells were maintained at 37° C. in a humidification thermostat containing 5% CO2 and 95% air. After culturing, the HepG2 cells were treated with each of the JC1-38, JC1-40, and JC1-42 compounds at a concentration of 100 μM, and, as a positive control, the HepG2 cells were treated with 2 mM metformin, which is an AMPK activator, for 24 hours. After treatment, the expression of proteins was analyzed by western blotting analysis. That is, after treatment, the HepG2 cells were destroyed on ice in a lysis buffer containing 50 mM NaCl, 50 mM Tris pH 7.4, 5 mM EDTA, 1% NP-40, and a protease inhibitor for 30 minutes, and then centrifuged to obtain a total cell lysate. 20 μg to 30 μg of proteins collected from the total cell lysate was subjected to 7% to 9% sodium dodecyl sulfate-polyacrylamide gel electrophoresis (SDS-PAGE), and was transferred to a polyvinylidene difluoride membrane (Millipore, Bedford, Mass., USA). The resulting product was subjected to blocking with 5% or 10% (w/v) nonfat dry milk in PBS containing 0.1% Tween-20, and was reacted with antibodies specific to RORα (Affinity BioReagents), LXRα, SREBP-1, FAS (Santa Cruz Biotechnology), phospho-ACC (Cell signaling), and α-tubulin (Calbiochem). Immunoreactive proteins were detected with Amersham ECL western blotting detection reagents using a horseradish peroxidase (HRP)-conjugated secondary antibody (Zymed Lab). Protein concentrations were quantified by bicinchoninic acid (BCA) (Pierce) analysis, and the expression of α-tubulin was monitored as a control. The results thereof are illustrated in FIG. 6a.
(§2) In addition, HepG2 cells were cultured under the same conditions, and then the HepG2 cells were treated with particular concentrations (0 μM, 1 μM, 10 μM, 50 μM, and 100 μM) of JC1-40 (or JC1-42) and 1 μM T17 for 24 hours. After treatment, the expression of proteins was analyzed by western blotting analysis, and the expression of α-tubulin was monitored as a control. The results thereof are illustrated in FIGS. 6b and 6c.

SREBP-1 [2] = test: Transcriptional activity of SREBP-1, SRE-Luc reporter in HepG2 cells treated with T17; conditions: 50 μM with 1 μM T17, 24 hours; FIG. 5b
Method: In addition, HepG2 cells were cultured under the same conditions, and then the HepG2 cells were transformed with SRE-Luc reporter (0.1 μg) using Welfect-EXTM Plus (WelGENE Inc., Korea). 24 hours after transformation, the HepG2 cells were treated with each of the JC1-38, JC1-40, and JC1-42 compounds at a concentration of 50 μM and 1 μM T17 (T0901317) for 24 hours. Subsequently, cell lysates were collected, and luciferase activity was analyzed and determined using an analytical luminescence luminometer. The luciferase activity was standardized by β-gal activity to determine transcriptional efficiency, and data was attained as the mean and SD for three independent experimental results, and the results thereof are illustrated in FIG. 5b.

LXRα [3] = test: Transcriptional activity of LXRα, LXRE-Luc reporter in HepG2 cells treated with T17; conditions: 1 μM, 10 μM, 20 μM, 50 μM, and 100 μM with 1 μM T17, 24 hours; FIG. 5a
Method: A human hepatoma cell line and HepG2 (ATCC HB 8065) were purchased from ATCC. HepG2 cells (1.2×10^5 cells/well) were seeded on a 24-well culture plate and cultured overnight in a DMEM containing 10% FBS. The HepG2 cells were maintained at 37° C. in a humidification thermostat containing 5% CO2 and 95% air. After culturing, the HepG2 cells were transformed with LXRE-Luc reporter (0.1 μg) using Welfect-EXTM Plus (WelGENE Inc., Korea). 24 hours after transformation, the HepG2 cells were treated with particular concentrations (1 μM, 10 μM, 20 μM, 50 μM, and 100 μM) of JC1-38, JC1-40, and JC1-42 and 1 μM T17 (T0901317), which is a ligand of LXRα, for 24 hours. Subsequently, cell lysates were collected, and luciferase activity was analyzed and determined using an analytical luminescence luminometer. The luciferase activity was standardized by β-gal activity to determine transcriptional activity, and data was attained as the mean and SD for two or three independent experimental results, and the results thereof are illustrated in FIG. 5a.

HMGCS2 = test: Fatty acid oxidation gene HMGCS2 in HepG2 cells, real-time RT-PCR; conditions: 100 μM, 24 hours; FIG. 8
Method: (§3) HepG2 cells (1×10^6 cells/well) were seeded on a 60-dish and cultured overnight in a DMEM containing 10% FBS. The HepG2 cells were maintained at 37° C. in a humidification thermostat containing 5% CO2 and 95% air. After culturing, the HepG2 cells were treated with JC1-38, JC1-40, and JC1-42 at a concentration of 100 μM for 24 hours. After treatment, effects thereof on transcriptional activity were analyzed by real-time reverse transcriptase-polymerase chain reaction (real-time RT-PCR) analysis. The PCR was performed using the following primers respectively specific to MCAD, ACO1, ACO2, HMGCS2, CPT-1, and ACS, which are involved in fatty acid oxidation: […]

CD36 = test: Fatty acid uptake gene CD36 in HepG2 cells, RT-PCR; conditions: 100 μM, 24 hours; FIG. 9a
Method: as §3, with “60-dish,” for “60-dish”, “RT-PCR” for “real-time reverse transcriptase-polymerase chain reaction (real-time RT-PCR)”, “CD36 (see FIG. 9a) involved in fatty acid uptake” for “MCAD, ACO1, ACO2, HMGCS2, CPT-1,”, “MTTP and ApoB100 (see FIG. 9b),” for “ACS,”, “the secretion of very low density lipoproteins:” for “fatty acid oxidation:”

ACS = test: Fatty acid oxidation gene ACS in HepG2 cells, real-time RT-PCR; conditions: 100 μM, 24 hours; FIG. 8
Method: as §3

SREBP-1 [4] = test: Expression of SREBP-1 protein in HepG2 cells, western blotting; conditions: for expression of SREBP-1 protein: 100 μM, 24 hours, FIG. 6a; for expression of SREBP-1, which had been increased by T17: 0, 1, 10, 50, 100 μM with 1 μM T17, 24 hours, FIGS. 6b and 6c; for expression of proteins (LXRα, SREBP-1, FAS of FIGS. 6b and 6c): 50 μM to 100 μM with 1 μM T17, 24 hours
Method: as §1, §2

ACO2 = test: Fatty acid oxidation gene ACO2 in HepG2 cells, real-time RT-PCR; conditions: 100 μM, 24 hours; FIG. 8
Method: as §3

ApoB100 = test: VLDL secretion gene ApoB100 in HepG2 cells, RT-PCR; conditions: 100 μM, 24 hours; FIG. 9b
Method: as §3, with “60-dish,” for “60-dish”, “RT-PCR” for “real-time reverse transcriptase-polymerase chain reaction (real-time RT-PCR)”, “CD36 (see FIG. 9a) involved in fatty acid uptake” for “MCAD, ACO1, ACO2, HMGCS2, CPT-1,”, “MTTP and ApoB100 (see FIG. 9b),” for “ACS,”, “the secretion of very low density lipoproteins:” for “fatty acid oxidation:”

Structure (SMILES)	expression of LXRα protein (LXRα [1])	transcriptional activity of SREBP-1, which had been increased by T17 (SREBP-1 [2])	transcriptional activity of LXRα, which had been increased by T17 (LXRα [3])	transcriptional activity of HMGCS2 (HMGCS2)	transcriptional activity of CD36 (CD36)	transcriptional activity of ACS (ACS)	expression of SREBP-1 protein (SREBP-1 [4])	transcriptional activity of ACO2 (ACO2)	transcriptional activity of ApoB100 (ApoB100)	expression of SREBP-1, which had been increased by T17 (SREBP-1 [4])	expression of proteins (LXRα, SREBP-1, FAS of FIGS. 6b and 6c) (SREBP-1 [4])	expression of LXRα, which had been increased by T17 (LXRα [1]; 0, 1, 10, 50, 100 μM with 1 μM T17, 24 hours, FIG. 6c)
CNC(=S)NCc1ccccc1-c1ccncc1 [Compound 38, 1-methyl-3-(4-pyridinyl-2-benzyl)-thiourea]	decreased	decreased	decreased in a manner dependent on the concentration	increased	decreased	increased	decreased	increased	increased			
CNC(=S)NCc1ccc(OCc2ccccc2)cc1 [Compound 40, 1-(4-benzyloxy-benzyl)-3-methyl-thiourea]	decreased	decreased	decreased in a manner dependent on the concentration	increased	decreased	increased	decreased	increased	increased	decreased in a manner dependent on the concentration	strongly inhibited	
CNC(=S)NCc1ccc(Oc2ccccc2)cc1 [Compound 42, 1-(4-phenoxy-benzyl)-3-methyl-thiourea]	decreased	decreased	decreased in a manner dependent on the concentration	increased	decreased	increased	decreased	increased	increased	decreased in a manner dependent on the concentration	strongly inhibited	decreased in a manner dependent on the concentration
